Measurements as given in US8501936B2 (priority 2009, dated 2013).

Columns and labels:
human JAK2 = human JAK2 (Homo sapiens (Human), UniProt O60674); conditions: read-out: JAK2 IC50
human FAK = human FAK (Homo sapiens (Human), UniProt Q05397); conditions: read-out: FAK IC50
human FAK, sequence (Q05397 whole entry): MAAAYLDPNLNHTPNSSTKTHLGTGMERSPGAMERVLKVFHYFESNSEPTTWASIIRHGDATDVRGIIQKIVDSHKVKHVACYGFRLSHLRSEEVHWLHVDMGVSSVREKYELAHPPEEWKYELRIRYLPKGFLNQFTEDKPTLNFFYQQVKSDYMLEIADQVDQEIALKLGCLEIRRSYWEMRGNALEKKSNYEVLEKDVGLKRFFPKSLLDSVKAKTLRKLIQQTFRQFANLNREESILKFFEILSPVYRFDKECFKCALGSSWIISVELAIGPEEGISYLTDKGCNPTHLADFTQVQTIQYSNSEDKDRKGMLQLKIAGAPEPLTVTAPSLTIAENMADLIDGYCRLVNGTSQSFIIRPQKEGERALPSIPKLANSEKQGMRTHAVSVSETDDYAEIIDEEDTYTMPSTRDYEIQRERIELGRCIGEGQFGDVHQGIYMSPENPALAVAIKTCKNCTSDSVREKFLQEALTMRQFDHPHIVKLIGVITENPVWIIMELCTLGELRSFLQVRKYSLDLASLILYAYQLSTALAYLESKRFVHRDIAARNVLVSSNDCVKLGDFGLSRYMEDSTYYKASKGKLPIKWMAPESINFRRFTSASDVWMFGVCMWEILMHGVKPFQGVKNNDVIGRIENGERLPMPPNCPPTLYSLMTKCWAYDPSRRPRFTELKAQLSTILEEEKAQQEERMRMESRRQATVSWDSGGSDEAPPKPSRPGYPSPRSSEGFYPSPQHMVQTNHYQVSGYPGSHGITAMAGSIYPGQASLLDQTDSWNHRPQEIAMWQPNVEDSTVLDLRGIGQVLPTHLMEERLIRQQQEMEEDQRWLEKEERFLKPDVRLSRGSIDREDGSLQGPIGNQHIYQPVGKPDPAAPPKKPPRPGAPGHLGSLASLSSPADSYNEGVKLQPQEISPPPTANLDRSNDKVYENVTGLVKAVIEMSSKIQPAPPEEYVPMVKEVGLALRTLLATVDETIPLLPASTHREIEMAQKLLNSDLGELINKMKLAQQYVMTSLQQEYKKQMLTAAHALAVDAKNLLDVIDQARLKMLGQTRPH

human JAK2, sequence (O60674 815-1132): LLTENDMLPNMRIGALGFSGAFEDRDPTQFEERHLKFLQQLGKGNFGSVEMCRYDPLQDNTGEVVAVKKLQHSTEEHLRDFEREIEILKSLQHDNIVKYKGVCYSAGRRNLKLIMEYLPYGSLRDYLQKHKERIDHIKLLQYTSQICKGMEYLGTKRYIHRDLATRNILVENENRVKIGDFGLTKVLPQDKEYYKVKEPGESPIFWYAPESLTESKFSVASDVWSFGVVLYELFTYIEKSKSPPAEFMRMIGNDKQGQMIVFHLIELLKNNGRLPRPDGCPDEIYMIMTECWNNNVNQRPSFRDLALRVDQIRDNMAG

Row | SMILES | IC50 (human JAK2) [nM] | IC50 (human FAK) [nM]
1 | COc1ccc(Nc2nc3c(-c4cn[nH]c4)cccn3n2)cc1 [Example 39, (4-Methoxy-phenyl)-[8-(1H-pyrazol-4-yl)-[1,2,4]triazolo[1,5-a]pyridin-2-yl]-amine] | 32.6 | 2360
2 | COc1cccc(Nc2nc3c(-c4ccc(S(C)(=O)=O)cc4)cccn3n2)c1 [Example 40, [8-(4-Methanesulfonyl-phenyl)-[1,2,4]triazolo[1,5-a]pyridin-2-yl]-(3-methoxy-phenyl)-amine] | 1 | 1360
3 | COc1ccc(Nc2nc3c(-c4cnn(S(C)(=O)=O)c4)cccn3n2)cc1 [Example 42, [8-(1-Methanesulfonyl-1H-pyrazol-4-yl)-[1,2,4]triazolo[1,5-a]pyridin-2-yl]-(4-methoxy-phenyl)-amine] | 3 | 507
4 | CS(=O)(=O)c1ccc(-c2cccn3nc(Nc4ccc(CN5CCOCC5)cc4)nc23)cc1 [Example 43, [8-(4-Methanesulfonyl-phenyl)-[1,2,4]triazolo[1,5-a]pyridin-2-yl]-(4-morpholin-4-ylmethyl-phenyl)-amine] | 2.2 | 1170
5 | CN1CCN(Cc2ccc(Nc3nc4c(-c5ccc(S(C)(=O)=O)cc5)cccn4n3)cc2)CC1 [Example 44, [8-(4-Methanesulfonyl-phenyl)-[1,2,4]triazolo[1,5-a]pyridin-2-yl]-[4-(4-methyl-piperazin-1-ylmethyl)-phenyl]-amine] | 2.4 | 1130
6 | CS(=O)(=O)c1ccc(-c2cccn3nc(Nc4cccc(CN5CCOCC5)c4)nc23)cc1 [Example 46, [8-(4-Methanesulfonyl-phenyl)-[1,2,4]triazolo[1,5-a]pyridin-2-yl]-(3-morpholin-4-ylmethyl-phenyl)-amine] | 0.6 | 953
7 | COc1ccc(Nc2nc3c(Nc4ccccc4S(C)(=O)=O)cccn3n2)cc1 [Example 47, N(8)-(2-Methanesulfonyl-phenyl)-N(2)-(4-methoxy-phenyl)-[1,2,4]triazolo[1,5-a]pyridine-2,8-diamine] | 12.8 | 3000
8 | CN1CCN(c2ccc(Nc3nc4c(-c5ccc(CS(C)(=O)=O)cc5)cccn4n3)cc2)CC1 [Example 48, [8-(4-Methanesulfonylmethyl-phenyl)-[1,2,4]triazolo[1,5-a]pyridin-2-yl]-[4-(4-methyl-piperazin-1-yl)-phenyl]-amine] | 0.7 | 1720
9 | CN1CCN(C2CCN(c3ccc(Nc4nc5c(-c6ccc(S(C)(=O)=O)cc6)cccn5n4)cc3)CC2)CC1 [Example 51, [8-(4-Methanesulfonyl-phenyl)-[1,2,4]triazolo[1,5-a]pyridin-2-yl]-{4-[4-(4-methyl-piperazin-1-yl)-piperidin-1-yl]-phenyl}-amine] | 1.8 | 168
10 | CC(C)S(=O)(=O)c1ccc(-c2cccn3nc(Nc4ccc(N5CCN(C)CC5)cc4)nc23)cc1 [Example 52, [4-(4-Methyl-piperazin-1-yl)-phenyl]-{8-[4-(propane-2-sulfonyl)-phenyl]-[1,2,4]triazolo[1,5-a]pyridin-2-yl}-amine] | 2.1 | 306
11 | CC(C)S(=O)(=O)c1ccc(-c2cccn3nc(Nc4cccc(N5CCN(C)CC5)c4)nc23)cc1 [Example 53, [3-(4-Methyl-piperazin-1-yl)-phenyl]-{8-[4-(propane-2-sulfonyl)-phenyl]-[1,2,4]triazolo[1,5-a]pyridin-2-yl}-amine] | 1.3 | 865
12 | COc1ccccc1-c1cccn2nc(Nc3ccc(N4CCN(C)CC4)cc3)nc12 [Example 55, [8-(2-Methoxy-phenyl)-[1,2,4]triazolo[1,5-a]pyridin-2-yl]-[4-(4-methyl-piperazin-1-yl)-phenyl]-amine] | 38.4 | 3000
13 | COc1ccccc1-c1cccn2nc(Nc3cccc(N4CCN(C)CC4)c3)nc12 [Example 56, [8-(2-Methoxy-phenyl)-[1,2,4]triazolo[1,5-a]pyridin-2-yl]-[3-(4-methyl-piperazin-1-yl)-phenyl]-amine] | 26.8 | 3000
14 | CN1CCN(C2CCN(c3cccc(Nc4nc5c(-c6ccc(S(C)(=O)=O)cc6)cccn5n4)c3)CC2)CC1 [Example 58, [8-(4-Methanesulfonyl-phenyl)-[1,2,4]triazolo[1,5-a]pyridin-2-yl]-{3-[4-(4-methyl-piperazin-1-yl)-piperidin-1-yl]-phenyl}-amine] | 1.5 | 2390
15 | CN1CCN(c2ccc(Nc3nc4c(-c5cccc(S(C)(=O)=O)c5)cccn4n3)cc2)CC1 [Example 59, [8-(3-Methanesulfonyl-phenyl)-[1,2,4]triazolo[1,5-a]pyridin-2-yl]-[4-(4-methyl-piperazin-1-yl)-phenyl]-amine] | 3.3 | 2590
16 | CN1CCN(c2cccc(Nc3nc4c(-c5cccc(S(C)(=O)=O)c5)cccn4n3)c2)CC1 [Example 60, [8-(3-Methanesulfonyl-phenyl)-[1,2,4]triazolo[1,5-a]pyridin-2-yl]-[3-(4-methyl-piperazin-1-yl)-phenyl]-amine] | 6.4 | 1260

Row | SMILES | IC50 (human JAK2) [nM] | IC50 (human FAK) [nM]
17 | CN1CCC(c2cccc(Nc3nc4c(-c5ccc(S(C)(=O)=O)cc5)cccn4n3)c2)CC1 [Example 61, [8-(4-Methanesulfonyl-phenyl)-[1,2,4]triazolo[1,5-a]pyridin-2-yl]-[3-(1-methyl-piperidin-4-yl)-phenyl]-amine] | 0.7 | 265
18 | CN1CCN(c2ccc(Nc3nc4c(-c5ccc(N(C)S(C)(=O)=O)cc5)cccn4n3)cc2)CC1 [Example 62, N-Methyl-N-(4-{2-[4-(4-methyl-piperazin-1-yl)-phenylamino]-[1,2,4]triazolo[1,5-a]pyridin-8-yl}-phenyl)-methanesulfonamide] | 0.6 | 999
19 | CN1CCN(c2cccc(Nc3nc4c(-c5ccc(N(C)S(C)(=O)=O)cc5)cccn4n3)c2)CC1 [Example 63, N-Methyl-N-(4-{2-[3-(4-methyl-piperazin-1-yl)-phenylamino]-[1,2,4]triazolo[1,5-a]pyridin-8-yl}-phenyl)-methanesulfonamide] | 0.6 | 1350
20 | CN1CCN(c2ccc(Nc3nc4c(-c5ccc(C(F)(F)F)cc5)cccn4n3)cc2)CC1 [Example 64, [4-(4-Methyl-piperazin-1-yl)-phenyl]-[8-(4-trifluoromethyl-phenyl)-[1,2,4]triazolo[1,5-a]pyridin-2-yl]-amine] | 3.1 | 1250
21 | CN1CCN(c2ccc(Nc3nc4c(-c5ccccc5S(C)(=O)=O)cccn4n3)cc2)CC1 [Example 66, [8-(2-Methanesulfonyl-phenyl)-[1,2,4]triazolo[1,5-a]pyridin-2-yl]-[4-(4-methyl-piperazin-1-yl)-phenyl]-amine] | 1330 | 10000
22 | CN1CCN(c2ccc(Nc3nc4cccc(-c5ccc(CN6CCS(=O)(=O)CC6)cc5)n4n3)cc2)CC1 [Example 70, 5-{4-[(1,1-dioxidothiomorpholin-4-yl)methyl]phenyl}-N-[4-(4-methylpiperazin-1-yl)phenyl][1,2,4]triazolo[1,5-a]pyridin-2-amine] | 1.1 | 291
23 | CN1CCN(c2cccc(Nc3nc4cccc(-c5ccc(CN6CCS(=O)(=O)CC6)cc5)n4n3)c2)CC1 [Example 71, 5-{4-[(1,1-dioxidothiomorpholin-4-yl)methyl]phenyl}-N-[3-(4-methylpiperazin-1-yl)phenyl][1,2,4]triazolo[1,5-a]pyridin-2-amine] | 0.8 | 502
24 | CN1CCN(c2ccc(Nc3nc4c(Nc5ccccc5S(C)(=O)=O)cccn4n3)cc2)CC1 [Example 72, N(8)-(2-Methanesulfonyl-phenyl)-N(2)-[4-(4-methyl-piperazin-1-yl)-phenyl]-[1,2,4]triazolo[1,5-a]pyridine-2,8-diamine] | 8.3 | 380
25 | CS(=O)(=O)c1ccc(-c2cccc3nc(Nc4ccc(OCCN5CCCC5)cc4)nn23)cc1 [Example 73, [5-(4-Methanesulfonyl-phenyl)-[1,2,4]triazolo[1,5-a]pyridin-2-yl]-[4-(2-pyrrolidin-1-yl-ethoxy)-phenyl]-amine] | 2.1 | 227
26 | CC(C)(C)OC(=O)N1CCN(c2ccc(Nc3nc4cccc(-c5ccc(S(C)(=O)=O)cc5)n4n3)cc2)CC1 [Example 75, 4-{4-[5-(4-Methanesulfonyl-phenyl)-[1,2,4]triazolo[1,5-a]pyridin-2-ylamino]-phenyl}-piperazine-1-carboxylic acid tert-butyl ester] | 1.3 | 359
27 | CS(=O)(=O)c1cccc(-c2cccc3nc(Nc4ccc(N5CCOCC5)cc4)nn23)c1 [Example 78, [5-(3-Methanesulfonyl-phenyl)-[1,2,4]triazolo[1,5-a]pyridin-2-yl]-(4-morpholin-4-yl-phenyl)-amine] | 3.2 | 1530
28 | CN1CCN(c2ccc(Nc3nc4cccc(-c5ccc(S(C)(=O)=O)cc5)n4n3)cc2)CC1 [Example 81, [5-(4-Methanesulfonyl-phenyl)-[1,2,4]triazolo[1,5-a]pyridin-2-yl]-[4-(4-methyl-piperazin-1-yl)-phenyl]-amine] | 6.9 | 421
29 | CN1CCN(c2ccc(Nc3nc4cccc(-c5cccc(S(C)(=O)=O)c5)n4n3)cc2)CC1 [Example 82, [5-(3-Methanesulfonyl-phenyl)-[1,2,4]triazolo[1,5-a]pyridin-2-yl]-[4-(4-methyl-piperazin-1-yl)-phenyl]-amine] | 9.2 | 584
30 | CN1CCN(c2ccc(Nc3nc4cccc(-c5cccc(NS(C)(=O)=O)c5)n4n3)cc2)CC1 [Example 83, N-(3-{2-[4-(4-Methyl-piperazin-1-yl)-phenylamino]-[1,2,4]triazolo[1,5-a]pyridin-5-yl}-phenyl)-methanesulfonamide] | 19 | 553
31 | CN1CCN(c2ccc(Nc3nc4cccc(-c5ccc(NS(C)(=O)=O)cc5)n4n3)cc2)CC1 [Example 84, N-(4-{2-[4-(4-Methyl-piperazin-1-yl)-phenylamino]-[1,2,4]triazolo[1,5-a]pyridin-5-yl}-phenyl)-methanesulfonamide] | 2.8 | 2280
